Laboratory results: patent US5654274A, “Biologically active peptides having N-terminal substitutions” (priority 1995, dated 1997)
Square brackets hold non-standard residues; d marks the D form. Ends that are not written are not given here. Peptide text beside a SMILES is read from it. * marks the point of attachment. hArg = N=C(N)NCCCC[C@H](N)C(=O)O; Octanoyl = CCCCCCCC(=O)*

tested on: P. gingivalis; test: Anaerobic antimicrobial susceptibility test (NCCLS M11-T2), P. gingivalis; format: cell-based; conditions: strain W50, BHI broth, 24-48 hours

Row | Compound | MIC P. gingivalis (strain) W50 [μl/ml]
1 | KIAGKIAKIAGKIAKIAGKIA-NH2 [(SEQ ID NO: 27)-NH2] | 4
2 | CCCCCCCC(=O)N[C@@H](CCCCN)C(=O)N[C@H](C(=O)N[C@@H](C)C(=O)NCC(=O)N[C@@H](CCCCN)C(=O)N[C@H](C(=O)N[C@@H](C)C(=O)N[C@@H](CCCCN)C(=O)N[C@H](C(=O)N[C@@H](C)C(=O)NCC(=O)N[C@@H](CCCCN)C(=O)N[C@H](C(=O)N[C@@H](C)C(=O)N[C@@H](CCCCN)C(=O)N[C@H](C(=O)N[C@@H](C)C(=O)NCC(=O)N[C@@H](CCCCN)C(=O)N[C@H](C(=O)N[C@@H](C)C(N)=O)[C@@H](C)CC)[C@@H](C)CC)[C@@H](C)CC)[C@@H](C)CC)[C@@H](C)CC)[C@@H](C)CC [Oct-(SEQ ID NO: 27)-NH2] (Octanoyl-KIAGKIAKIAGKIAKIAGKIA-NH2) | 16
3 | CCCCCCCC(=O)N[C@@H](CCCCN)C(=O)N[C@H](C(=O)N[C@@H](C)C(=O)NCC(=O)N[C@@H](CCCCN)C(=O)N[C@H](C(=O)N[C@@H](C)C(=O)N[C@@H](CCCCN)C(=O)N[C@H](C(=O)N[C@@H](C)C(=O)NCC(=O)N[C@@H](CCCCN)C(=O)N[C@H](C(=O)N[C@@H](C)C(=O)N[C@@H](CCCCN)C(=O)N[C@H](C(=O)N[C@@H](C)C(=O)NCC(=O)N[C@@H](CCCCN)C(=O)N[C@H](C(=O)N[C@@H](C)C(=O)O)[C@@H](C)CC)[C@@H](C)CC)[C@@H](C)CC)[C@@H](C)CC)[C@@H](C)CC)[C@@H](C)CC [Oct-(SEQ ID NO: 27)-OH] (Octanoyl-KIAGKIAKIAGKIAKIAGKIA-OH) | 1
4 | CCCCCCCC(=O)N[C@@H](CCCCNC(=N)N)C(=O)N[C@H](C(=O)N[C@@H](C)C(=O)NCC(=O)N[C@@H](CCCCNC(=N)N)C(=O)N[C@H](C(=O)N[C@@H](C)C(=O)N[C@@H](CCCCNC(=N)N)C(=O)N[C@H](C(=O)N[C@@H](C)C(=O)NCC(=O)N[C@@H](CCCCNC(=N)N)C(=O)N[C@H](C(=O)N[C@@H](C)C(=O)N[C@@H](CCCCNC(=N)N)C(=O)N[C@H](C(=O)N[C@@H](C)C(=O)NCC(=O)N[C@@H](CCCCNC(=N)N)C(=O)N[C@H](C(=O)N[C@@H](C)C(N)=O)[C@@H](C)CC)[C@@H](C)CC)[C@@H](C)CC)[C@@H](C)CC)[C@@H](C)CC)[C@@H](C)CC [Oct-(SEQ ID NO: 66)-NH2] (Octanoyl-[hArg]IAG[hArg]IA[hArg]IAG[hArg]IA[hArg]IAG[hArg]IA-NH2) | 2
5 | CCCCCCCC(=O)N[C@@H](CCCCN)C(=O)N[C@H](C(=O)N[C@@H](C)C(=O)N[C@@H](CCCCN)C(=O)N[C@@H](CCCCN)C(=O)N[C@H](C(=O)N[C@@H](C)C(=O)N[C@@H](CCCCN)C(=O)N[C@H](C(=O)N[C@@H](C)C(=O)N[C@@H](CCCCN)C(=O)N[C@@H](CCCCN)C(=O)N[C@H](C(=O)N[C@@H](C)C(=O)N[C@@H](CCCCN)C(=O)N[C@H](C(=O)N[C@@H](C)C(=O)N[C@@H](CCCCN)C(=O)N[C@@H](CCCCN)C(=O)N[C@H](C(=O)N[C@@H](C)C(=O)O)[C@@H](C)CC)[C@@H](C)CC)[C@@H](C)CC)[C@@H](C)CC)[C@@H](C)CC)[C@@H](C)CC [Oct-(SEQ ID NO: 86)-OH] (Octanoyl-KIAKKIAKIAKKIAKIAKKIA-OH) | 1
6 | CC[C@H](C)[C@H](NC(=O)[C@H](CCCCNC(=N)N)NC(=O)CNC(=O)[C@H](C)NC(=O)[C@@H](NC(=O)[C@H](CCCCNC(=N)N)NC(=O)[C@H](C)NC(=O)[C@@H](NC(=O)[C@H](CCCCNC(=N)N)NC(=O)CNC(=O)[C@H](C)NC(=O)[C@@H](NC(=O)[C@H](CCCCNC(=N)N)NC(=O)[C@H](C)NC(=O)[C@@H](NC(=O)[C@H](CCCCNC(=N)N)NC(=O)CNC(=O)[C@H](C)NC(=O)[C@@H](NC(=O)[C@@H](N)CCCCNC(=N)N)[C@@H](C)CC)[C@@H](C)CC)[C@@H](C)CC)[C@@H](C)CC)[C@@H](C)CC)C(=O)N[C@@H](C)C(N)=O [(SEQ ID NO: 66)-NH2] (H-[hArg]IAG[hArg]IA[hArg]IAG[hArg]IA[hArg]IAG[hArg]IA-NH2) | 4

molecular target: not listed separately; test: Inhibition of lipopolysaccharide binding to dye (LPS50); parameters: species or system E. coli; conditions: concentration of peptide necessary to inhibit the binding of 50% of the lipopolysaccharide to the dye; absorbance at 460 nm and 510 nm
Experimental: A stock solution (10×) of 0.6 mM dye is prepared by adding 1.68 mg of (1-ethyl-2-(3-[1-ethylnaphthol(1,2-d)- thiazolin-2-ylidene]-2-methylpropenyl)naphtho-(1,2-d)-thiazolium bromide (Signa E-7762) to 5 ml of 200 proof ethanol. 1 ml of this solution was added to 9 ml ethanol to give 0.06 mM of dye (60 μM dye).
A stock solution of lipopolysaccharide (LPS) from E. coli serotype 0111:B4 was prepared at 1.5 mg/ml. 400 μl of this solution was mixed with 4.6 ml pyrogen free water to give a 120 μg/ml solution.
Row 1 and rows 3 through 12 of a microtiter plate were filled with 100 μl of pyrogen free water or with 10 mg/ml of bovine serum albumin. 200 μl of peptide then is added to row 2 of the microtiter plate at a concentration of […]. 200 μl of pyrogen free water is added to each of the control wells in two lanes (having dye and LPS but no peptide or having dye and no LPS and no peptide). 100 μl then is serially diluted from row 2 through row 12 of the microtiter plate. 50 μl of PBS (pH 7.4) and 50 μl of the LPS solution then are added to row 1 of the plate (blank wells).
Equal volumes of the LPS solution, the dye, and PBS (pH 7.4, approx. 150 mM) are mixed to form a dye-buffer--LPS mixture having LPS at a final concentration of 40 μg/mi and dye at a final concentration of 20 μM. The dye-buffer LPS mixture then is incubated for 10 minutes at room temperature in the dark.
The plate is incubated for 10 minutes at room temperature in the dark, and the absorbance at 460 nm and 510 nm is read. From these absorbances, the LPS50 value, which is the concentration in mg/ml of peptide necessary to inhibit the binding of 50% of the lipopolysaccharide to the dye, is calculated.

Row | Compound | LPS50 [µg/mL]
7 | CCCCCCCC(=O)N[C@@H](CCCCN)C(=O)N[C@@H](CCCCN)C(=O)N[C@@H](CC(C)C)C(=O)N[C@@H](CC(C)C)C(=O)N[C@@H](CCCCN)C(=O)N[C@@H](CCCCN)C(=O)N[C@@H](CC(C)C)C(=O)N[C@@H](CCCCN)C(=O)N[C@@H](CCCCN)C(=O)N[C@@H](CC(C)C)C(N)=O [Oct-(SEQ ID NO: 109)-NH2] (Octanoyl-KKLLKKLKKL-NH2) | 0.60
8 | CCCCCCCC(=O)N[C@H](CC(C)C)C(=O)N[C@H](CCCCN)C(=O)N[C@H](CCCCN)C(=O)N[C@H](CC(C)C)C(=O)N[C@H](CC(C)C)C(=O)N[C@H](CCCCN)C(=O)N[C@H](CCCCN)C(=O)N[C@H](CC(C)C)C(=O)N[C@H](CCCCN)C(=O)N[C@H](CCCCN)C(=O)N[C@H](CC(C)C)C(N)=O [Oct-D-(SEQ ID NO: 110)-NH2] (Octanoyl-[dL][dK][dK][dL][dL][dK][dK][dL][dK][dK][dL]-NH2) | 0.97
9 | CCCCCCCC(=O)N[C@@H](CC(C)C)C(=O)N[C@@H](CCCCN)C(=O)N[C@@H](CCCCN)C(=O)N[C@@H](CC(C)C)C(=O)N[C@@H](CC(C)C)C(=O)N[C@@H](CCCCN)C(=O)N[C@@H](CCCCN)C(N)=O [Oct-(SEQ ID NO: 137)-NH2] (Octanoyl-LKKLLKK-NH2) | 4.80
10 | CCCCCCCC(=O)N[C@@H](CCCCN)C(=O)N[C@@H](Cc1ccccc1)C(=O)N[C@@H](C)C(=O)N[C@@H](CCCCN)C(=O)N[C@@H](Cc1ccccc1)C(=O)N[C@@H](C)C(=O)N[C@@H](CCCCN)C(=O)N[C@@H](CCCCN)C(=O)N[C@@H](Cc1ccccc1)C(=O)N[C@@H](C)C(N)=O [Oct-(SEQ ID NO: 121)-NH2] (Octanoyl-KFAKFAKKFA-NH2) | 20.00
11 | Oct-D-(SEQ ID NO:110)-NH2 -melibionic acid: Oct-D-(SEQ ID NO:110)-NH2 with melibionic acid, not further explained (Octanoyl-LKKLLKKLKKL-NH2; not fully specified (some residues); also: melibionic acid, not further explained) | 45.00
12 | CCCCCCCC(=O)N[C@@H](CC(C)C)C(=O)N[C@@H](CC(C)C)C(=O)N[C@@H](CCCCN)C(=O)N[C@@H](CCCCN)C(=O)N[C@@H](CC(C)C)C(=O)N[C@@H](CCCCN)C(=O)N[C@@H](CCCCN)C(=O)N[C@@H](CC(C)C)C(N)=O [Oct-(SEQ ID NO: 107)-NH2] (Octanoyl-LLKKLKKL-NH2) | 15.00
13 | CCCCCCCC(=O)N[C@@H](CC(C)C)C(=O)N[C@@H](CCCCN)C(=O)N[C@@H](CCCCN)C(=O)N[C@@H](CC(C)C)C(=O)N[C@@H](CCCCN)C(=O)N[C@@H](CCCCN)C(=O)N[C@@H](CC(C)C)C(N)=O [Oct-(SEQ ID NO: 106)-NH2] (Octanoyl-LKKLKKL-NH2) | 6.80
14 | CCCCCCCC(=O)N[C@@H](CC(C)C)C(=O)N[C@@H](CCCCN)C(=O)N[C@@H](CCCCN)C(=O)N[C@@H](CC(C)C)C(=O)N[C@@H](CC(C)C)C(=O)N[C@@H](CCCCN)C(=O)N[C@@H](CC(C)C)C(=O)N[C@@H](CC(C)C)C(=O)N[C@@H](CCCCN)C(N)=O [Oct-(SEQ ID NO: 138)-NH2] (Octanoyl-LKKLLKLLK-NH2) | 1.00
15 | CCCCCCCC(=O)N[C@@H](CCCCN)C(=O)N[C@@H](CCCCN)C(=O)N[C@@H](CC(C)C)C(=O)N[C@@H](C)C(=O)N[C@@H](CCCCN)C(=O)N[C@@H](CC(C)C)C(=O)N[C@@H](C)C(=O)N[C@@H](CCCCN)C(=O)N[C@@H](CCCCN)C(=O)N[C@@H](CC(C)C)C(=O)N[C@@H](C)C(N)=O [Oct-(SEQ ID NO: 123)-NH2] (Octanoyl-KKLAKLAKKLA-NH2) | 1.70
